Measured values reported in paper PMC12381739, “Druglike Molecular Degraders of the Oncogenic RNA-Binding Protein HuR” (JACS Au, 2025).

Legend:
Bcl2 and FOXQ1 mRNA = assay: mRNA RT-qPCR of Bcl2 and FOXQ1 in MCF-7 cells; assay type: cell-based, human; details: MCF-7, concentrations ranging from 1 nM to 100 nM
Protocol: MCF-7 cells were seeded into 12-well plates (∼150,000 cells per well) at 60–70% confluency incubated for 12 h. The cells were then treated with different synthesized compounds at the indicated concentrations or with vehicle control for 24 and 48 h. After treatment, total RNA was extracted using the QuickRNA Miniprep Kit (Zymo Research) according to the manufacturer’s protocol, including DNase I treatment. Reverse transcription was performed on 1 μg of total RNA using the qScript cDNA Synthesis Kit (Quantabio) following the manufacturer’s instructions. Approximately 30 ng of cDNA were used for each qPCR reaction, which was carried out using the Luna Universal qPCR Master Mix (New England BioLabs, cat# E3010G) on a CFX Opus 384 Real-Time PCR System. Relative expression levels of Bcl-2 and FOXQ1 were calculated by normalizing to GAPDH expression using the ΔΔCt method.

Bcl2 [1] = assay: Bcl2 protein expression by western blot in MCF-7 cells; assay type: cell-based, human; details: MCF-7, 10 nM, 24 h
Protocol: (§1) The hook effect was again observed in Bcl2 protein expression, underscoring the functional link between HuR and Bcl2.
(§2) MDA-MB-231 and MCF-7 cells were seeded in 6-well plates at approximately 60% confluency in complete growth medium and treated with synthesized compounds at the indicated concentrations or with vehicle for 24 h. Total protein was extracted using RIPA cell lysis buffer (BioPrep) containing a protease inhibitor, and protein concentration was measured using the BCA protein assay (Sigma-Aldrich) according to the manufacturer’s protocol. Approximately 30 μg of total protein were resolved on a 12% SDS-acrylamide gel and transferred to a PVDF membrane (Immobilon FL transfer membrane; Merck). The membrane was washed with 1× Tris-buffered saline (TBS) containing 0.1% (v/v) Tween-20 (TBST; Tris-base, pH 7.6, NaCl, and Tween-20) and blocked in 1× TBST containing 5% (w/v) BSA for 2 h at room temperature. […] The fold change in the expression of the target proteins (HuR or Bcl2) was calculated by normalizing the band intensity to the Vinculin band intensity using ImageJ.

Bcl2 [2] = assay: Bcl2 protein expression by western blot in MDA-MB-231 cells; assay type: cell-based, human; details: MDA-MB-231, 10 nM, 24 h
Protocol: as §1, §2

MCF-7 cells [3] = assay: Crystal violet viability assay in MCF-7 cells; assay type: cell-based, human; details: MCF-7, 10 nM and 10 μM, 48 h
Text: (§3) To elucidate the decrease in cell viability observed, we evaluated the potential increase in apoptosis using the […] Caspase-Glo 3/7 assay system. Upon cell lysis, active caspases cleave a luminogenic substrate, releasing aminoluciferin, which is subsequently converted to light by luciferase. The intensity of the signal directly correlates with the levels of apoptosis. […] This destabilization reduces the levels of proteins essential for cancer cell survival, resulting in cumulative cellular stress, diminished proliferation, and enhanced cytotoxicity. […] This enhanced effect is likely due to the catalytic nature of the molecular glue degraders, offering promising potential for cancer treatment.
[…] After treatment, the medium was removed, and cells were gently washed with PBS to remove any residual media. Cells were then fixed by adding 100 μL of 100% cold methanol and incubating for 10 min. The methanol was aspirated, and the cells were allowed to air-dry fully. The cells were stained with 50 μL of 0.1% crystal violet for 10 min, after which excess crystal violet was aspirated and the cells were washed with PBS. To quantify cell viability, 100 μL of 33% acetic acid was added to each well to solubilize the bound dye. […] was then measured at 590 nm using Synergy H1 Hybrid Multi-Mode Microplate Reader (Biotek, Agilent). […]

MCF-10A = assay: Crystal violet viability assay in MCF-10A cells; assay type: cell-based; details: 10 nM or 10 μM, 48 h
Text: as §3
RNF-126 recruiter for 48 h, measured using crystal violet. (B) Viability assay of MCF-10A cells
126 recruiter for 48 h, measured using crystal violet.
(1 picture or pasted object on this page, not shown here)

MCF-7 cells [4] = assay: Caspase-Glo 3/7 apoptosis assay; assay type: cell-based, human; details: MCF-7, 10 nM
Text: as §3
MCF-7 cells were seeded in 96-well plates to 80% confluency and treated with synthesized compounds at four concentrations (1 nM–1 μM) for 24 and 48 h. Cell apoptosis was analyzed using the Caspase-Glo 3/7 Assay System (Promega, G8090). Each sample was incubated with Caspase-Glo 3/7 solution for 1 h, followed by luminescence measurement. Luminescence was measured […] using the Synergy H1 Hybrid Multi-Mode Microplate Reader (Biotek, Agilent). Cell apoptosis was calculated as the percent increase in luminescence of treated cells compared to untreated controls. All experiments were performed in triplicate.

MCF-7 spheroids = assay: 3D spheroid growth model, MCF-7; assay type: cell-based, human; details: 10 nM
Protocol: (§4) MDA-MB-231 and MCF-7 breast cancer cells were cultured in standard tissue culture plates using RPMI or DMEM media supplemented with 10% fetal bovine serum (FBS) and 1% penicillin–streptomycin until they reached approximately 80% confluency. Cells were washed with PBS and dissociated using 0.25% Trypsin-EDTA, followed by neutralization with complete medium. Viability was assessed via trypan blue exclusion, ensuring >90% viable cells. For spheroid formation, cells were seeded into ultralow attachment 96-well plates at a density of 5000 cells/well in 200 μL of complete medium. Plates were centrifuged at 1000 rpm for 5 min to promote aggregation and incubated at 37 °C in a humidified 5% CO2 atmosphere. Spheroid formation was monitored daily using an inverted microscope. Media exchanges or treatment additions were performed by carefully aspirating 100 μL of medium from each well and replacing it with an equal volume of fresh or treatment-containing medium. Differences in spheroid characteristics between the two cell lines were noted: MCF-7 cells, being epithelial and E-cadherin positive, formed compact, uniform spheroids at lower seeding densities (1000–5000 cells/well) over 3–5 days, whereas MDA-MB-231 cells, which lack E-cadherin, required higher densities (5000–10,000 cells/well) and formed looser aggregates typically within 2–4 days. All experiments were performed in duplicates. Surface area was calculated using Image View’s multipoint connection function.

MDA-MB-231 spheroids = assay: 3D spheroid growth model, MDA-MB-231; assay type: cell-based, human; details: 10 nM
Protocol: as §4

Compound: CCOC(=O)c1cc2cc(NC(=O)/C=C/C(=O)c3ccc(OC)cc3)ccc2[nH]1 [MG-HuR2]
- Bcl2 and FOXQ1 mRNA expression (Bcl2 and FOXQ1 mRNA): decrease in the expression of both genes
- reduction of Bcl2 protein expression (Bcl2 [1]): 88%
- reduction of Bcl2 protein expression (Bcl2 [2]): 45%
- cytotoxicity / cell viability (crystal violet) (MCF-7 cells [3]): exhibited cytotoxic activity
- cytotoxicity / viability in nontumorigenic cells (MCF-10A): No significant cytotoxicity or change in viability
- apoptosis (caspase 3/7) (MCF-7 cells [4]): significant increase in apoptosis
- spheroid growth (MCF-7 spheroids): inhibited spheroid growth after 2 days
- spheroid growth (MDA-MB-231 spheroids): inhibited spheroid growth after 2 days
